Results published in patent publication US7994189B2, “Dihydropyridine derivatives” (N.V. Organon, priority 2005, dated 2011).

Molecular target: T1, human FSH receptor (Homo sapiens, UniProt P23945)
T1 construct: expressed in transfected cells; host or cells: Chinese Hamster Ovary (CHO) cells
T1 sequence (P23945 18-695): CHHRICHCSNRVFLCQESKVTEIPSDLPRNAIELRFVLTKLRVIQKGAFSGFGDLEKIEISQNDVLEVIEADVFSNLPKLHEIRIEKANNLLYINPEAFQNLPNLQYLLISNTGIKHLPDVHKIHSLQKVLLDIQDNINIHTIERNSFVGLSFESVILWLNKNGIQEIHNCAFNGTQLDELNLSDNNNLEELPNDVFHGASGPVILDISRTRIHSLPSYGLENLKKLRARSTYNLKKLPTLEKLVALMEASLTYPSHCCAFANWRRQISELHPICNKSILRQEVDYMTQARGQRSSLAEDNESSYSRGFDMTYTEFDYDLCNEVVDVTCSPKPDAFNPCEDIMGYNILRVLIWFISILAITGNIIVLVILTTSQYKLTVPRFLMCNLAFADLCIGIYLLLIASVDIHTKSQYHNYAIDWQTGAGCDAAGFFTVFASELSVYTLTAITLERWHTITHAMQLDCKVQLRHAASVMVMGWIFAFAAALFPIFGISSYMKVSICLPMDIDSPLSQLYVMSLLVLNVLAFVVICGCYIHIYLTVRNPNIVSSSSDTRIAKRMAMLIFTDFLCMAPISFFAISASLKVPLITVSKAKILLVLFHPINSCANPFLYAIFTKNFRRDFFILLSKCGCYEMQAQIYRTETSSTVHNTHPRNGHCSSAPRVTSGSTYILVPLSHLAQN
Assay: CHO-FSH in vitro bioactivity (CRE/luciferase reporter gene)
Format: cell-based
Conditions: CHO cells stably transfected with the human FSH receptor and CRE/firefly luciferase reporter; luminescence; read-out: EC50 (concentration of test compound causing half-maximal (50%) stimulation)
Procedure: CHO-FSH In Vitro Bioactivity
FSH activity of compounds were tested in Chinese Hamster Ovary (CHO) cells stably transfected with the human FSH receptor and cotransfected with a cAMP responsive element (CRE)/promotor directing the expression of a firefly luciferase reporter gene. Binding of ligand to the Gs-coupled FSH receptor will result in an increase of cAMP, which in turn will induce an increased transactivation of the luciferase reporter construct. The luciferase signal was quantified using a luminescence counter. For test compounds, EC50 values (concentration of test compound causing half-maximal (50%) stimulation) were calculated. For that purpose the software program GraphPad PRISM, version 3.0 (GraphPad software Inc., San Diego) was used.

EC50 [nM] | SMILES
< 1 | CCCC1CC(=O)C2=C(C1)NC(C)=C(C#N)C2c1cc(Br)c(OCc2cccc(C(=O)NCC(=O)OC)c2)c(OCC)c1 (centres unmarked) [Example 24, Glycine N-3-[2-bromo-4-(3-cyano-2-methyl-5-oxo-7-propyl-1,4,5,6,7,8-hexahydroquinolin-4-yl)-6-ethoxyphenoxymethyl]benzoyl methyl ester]
< 1 | CCCC1CC(=O)C2=C(C1)NC(C)=C(C#N)C2c1cc(Br)c(OCc2ccc(C(=O)NCc3cccs3)cc2)c(OCC)c1 (centres unmarked) [Example 29, 4-[2-Bromo-4-(3-cyano-2-methyl-5-oxo-7-propyl-1,4,5,6,7,8-hexahydroquinolin-4-yl)-6-ethoxyphenoxymethyl]-N-thiophen-2-ylmethylbenzamide]
